According to PMC8279416, “Structural Fine-Tuning of Desmuramylpeptide NOD2 Agonists Defines Their In Vivo Adjuvant Activity” (Journal of Medicinal Chemistry, 2021):
Values joined by “and” are separate entries in the source; they are usually repeats but may differ in a detail not shown here. Identical values can stand only once.

Target: T1, NOD2 (Homo sapiens, UniProt Q9HC29)
T1 construct: host or cells: HEK-Blue NOD2 cells (HEK293-derived)
Assay: HEK-Blue NOD2 cell line reporter assay (NF-κB-inducible SEAP)
Type: cell-based
Conditions: for NOD2 activity at 2 μM (fold increase): NF-κB transcriptional (SEAP) activity relative to 0.1% DMSO; for NOD2 activation (in words): compound alone; for Decrease of NOD2 agonistic activity/potency by a factor, relative to 1: ratio of EC50 versus compound 1
Description: To determine the NOD2 agonistic potential of the synthesized desmuramylpeptides at the cellular level, we used the validated and commercially available HEK-Blue NOD2 cell line reporter assay. HEK-Blue NOD2 cells were first treated for 18 h with MDP, 1, or the novel desmuramylpeptides at 2 μM. The NF-κB transcriptional activity measured was normalized to that of the vehicle treated (0.1% DMSO) control HEK-Blue NOD2 cells.
HEK-Blue NOD2 and NOD1 cell line reporter assays are derived from HEK293 cells by cotransfection of the hNOD2 or hNOD1 genes, respectively, and an NF-κB-inducible secreted embryonic alkaline phosphatase (SEAP) reporter gene. Following activation of NOD2 or NOD1, the resulting NF-κB induces production of SEAP, the levels of which can be quantified colorimetrically. […] After 18 h of incubation (37 °C, 5% CO2), secreted embryonic alkaline phosphatase (SEAP) activity was determined spectrophotometrically as absorbance at 630 nm (BioTek Synergy microplate reader; Winooski, VT, U.S.A.). EC50 values were calculated using Prism software (version 9; GraphPad Software, CA, U.S.A.). For determination of specificity, HEK-Blue NOD2 cells (2.5 × 10^5 cells/mL) were first pretreated for 1 h with a 10 μM NOD2 antagonist, before the addition of the compounds (2 μM), with incubation for 18 h. SEAP activity in the supernatants was determined as above. The experiments were run in duplicate and repeated as at least two independent biological replicates.

[1] = HEK-Blue NOD2 cells, 18 h, mean ± SEM
[2] = HEK-Blue NOD2 cells, 18 h, 7 or 8 concentrations 1 nM to 20 μM, mean ± SEM

T1 sequence (Q9HC29 whole entry): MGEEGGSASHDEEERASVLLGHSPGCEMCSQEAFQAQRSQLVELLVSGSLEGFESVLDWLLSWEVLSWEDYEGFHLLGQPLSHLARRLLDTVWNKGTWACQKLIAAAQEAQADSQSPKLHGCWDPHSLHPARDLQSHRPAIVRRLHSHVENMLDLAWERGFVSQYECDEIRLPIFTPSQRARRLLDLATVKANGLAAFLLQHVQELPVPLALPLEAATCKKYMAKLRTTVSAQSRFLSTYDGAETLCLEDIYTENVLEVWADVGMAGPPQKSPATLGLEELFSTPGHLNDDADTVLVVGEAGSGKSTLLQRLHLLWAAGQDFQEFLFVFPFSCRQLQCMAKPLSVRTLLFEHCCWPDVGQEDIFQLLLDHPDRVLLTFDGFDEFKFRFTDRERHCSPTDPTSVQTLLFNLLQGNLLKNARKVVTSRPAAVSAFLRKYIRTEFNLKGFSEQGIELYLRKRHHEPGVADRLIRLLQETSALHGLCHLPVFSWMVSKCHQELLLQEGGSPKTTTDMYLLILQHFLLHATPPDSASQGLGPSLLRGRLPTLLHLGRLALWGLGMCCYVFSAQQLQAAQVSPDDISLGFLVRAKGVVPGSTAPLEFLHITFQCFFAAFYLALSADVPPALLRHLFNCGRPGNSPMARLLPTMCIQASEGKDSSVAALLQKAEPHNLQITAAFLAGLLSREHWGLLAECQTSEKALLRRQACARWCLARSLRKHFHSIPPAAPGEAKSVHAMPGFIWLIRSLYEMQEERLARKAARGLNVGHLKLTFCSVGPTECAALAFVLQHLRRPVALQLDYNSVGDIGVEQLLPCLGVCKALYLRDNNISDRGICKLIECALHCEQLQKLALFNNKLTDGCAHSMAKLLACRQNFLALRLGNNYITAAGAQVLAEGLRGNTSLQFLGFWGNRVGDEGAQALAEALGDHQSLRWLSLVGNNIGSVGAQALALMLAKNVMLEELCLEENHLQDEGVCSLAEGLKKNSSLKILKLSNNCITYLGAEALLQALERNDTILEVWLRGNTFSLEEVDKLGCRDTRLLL

| Structure (SMILES) | NOD2 activity at 2 μM (fold increase) [1] | EC50 [2] | other results |
| --- | --- | --- | --- |
| COc1cc(/C=C/C(=O)NCC(=O)N[C@H](C(=O)N[C@H](CCC(=O)N2CCCC2)C(=O)OC(C)(C)C)C(C)C)ccc1O [Compound 62, tert-Butyl (R)-2-((S)-2-(2-((E)-3-(4-Hydroxy-3-methoxyphenyl)acrylamido)acetamido)-3-methylbutanamido)-5-oxo-5-(pyrrolidin-1-yl)pentanoate] | 1.43 ± 0.01 fold increase |  |  |
| CCCCCCCCCCCC(=O)O [lauric acid, reference compound] |  |  | NOD2 activation (in words) (HEK-Blue NOD2 cells): did not show any NOD2 activation alone; Enhancement of the NOD2 agonistic activity of 1 (HEK-Blue NOD2 cells, in combination with 1, data not shown): did not enhance the NOD2 agonistic activity of 1 |
| CCCCCCCCCCCC(=O)Oc1ccc(/C=C/C(=O)NCC(=O)N[C@H](C(=O)N[C@H](CCC(=O)OC2CCCC2)C(=O)OC2CCCC2)C(C)C)cc1OC [Compound 77, Dicyclopentyl ((E)-3-(4-(Dodecanoyloxy)-3-methoxyphenyl)acryloyl)glycyl-L-valyl-D-glutamate] | 2.56 ± 0.12 fold increase | 243 ± 50 nM |  |
| COc1cc(/C=C/C(=O)NCC(=O)N[C@H](C(=O)N[C@H](CCC(=O)OC2CCCC2)C(=O)OC2CCCC2)C(C)C)ccc1OC(C)=O [Compound 76, Dicyclopentyl ((E)-3-(4-Acetoxy-3-methoxyphenyl)acryloyl)glycyl-L-valyl-D-glutamate] | 2.67 ± 0.25 fold increase | 63 ± 0.2 nM |  |
| CCOC(=O)CC[C@@H](NC(=O)[C@@H](NC(=O)CNC(=O)/C=C/c1ccc(N)cc1)C(C)C)C(=O)OCC [Compound 24, Diethyl ((E)-3-(4-Aminophenyl)acryloyl)glycyl-L-valyl-D-glutamate] | 2.45 ± 0.18 fold increase | 542 ± 48 nM |  |
| CCOC(=O)CC[C@@H](NC(=O)[C@@H](NC(=O)CNC(=O)C1CC1c1ccc(O)c(OC)c1)C(C)C)C(=O)OCC (stereo partly drawn) [Compound 28, Diethyl (2-(4-Hydroxy-3-methoxyphenyl)cyclopropane-1-carbonyl)glycyl-L-valyl-D-glutamate] | 2.66 ± 0.07 fold increase | 369 ± 4 nM | Decrease of NOD2 agonistic activity/potency by a factor, relative to 1: 4 |
| CCCCNC(=O)CC[C@@H](NC(=O)[C@@H](NC(=O)CNC(=O)/C=C/c1ccc(O)c(OC)c1)C(C)C)C(=O)NCCCC [Compound 58, (R)-N^1,N^5-Dibutyl-2-((S)-2-(2-((E)-3-(4-hydroxy-3-methoxyphenyl)acrylamido)acetamido)-3-methylbutanamido)pentanediamide] | 1.30 ± 0.03 fold increase |  |  |
| COc1cc(/C=C/C(=O)NCC(=O)N[C@H](C(=O)N[C@H](CCC(=O)OC(C)(C)C)C(=O)N(C)OC)C(C)C)ccc1O [Compound 63, tert-Butyl (R)-4-((S)-2-(2-((E)-3-(4-Hydroxy-3-methoxyphenyl)acrylamido)acetamido)-3-methylbutanamido)-5-(methoxy(methyl)amino)-5-oxopentanoate] | 1.36 ± 0.05 fold increase |  |  |
| CCOC(=O)CC[C@@H](NC(=O)[C@@H](NC(=O)CNC(=O)C1CC1c1ccc(F)c(F)c1)C(C)C)C(=O)OCC (stereo partly shown) [Compound 29] | 2.63 ± 0.10 fold increase | 49 ± 3 nM |  |
| CCNC(=O)CC[C@@H](NC(=O)[C@@H](NC(=O)CNC(=O)/C=C/c1ccc(O)c(OC)c1)C(C)C)C(=O)NCC [Compound 57, (R)-N^1,N^5-Diethyl-2-((S)-2-(2-((E)-3-(4-hydroxy-3-methoxyphenyl)acrylamido)acetamido)-3-methylbutanamido)pentanediamide] | 1.45 ± 0.05 fold increase |  | NOD2 activation (in words) (HEK-Blue NOD2 cells): substantially diminished activity |
| CCCCCCCCCCCCCCCCCC(=O)Oc1ccc(/C=C/C(=O)NCC(=O)N[C@@H](COCc2ccccc2)C(=O)N[C@H](CCC(=O)OCC)C(=O)OCC)cc1OC [Compound 79, Diethyl O-Benzyl-N-(((E)-3-(3-methoxy-4-(stearoyloxy)phenyl)acryloyl)glycyl)-L-seryl-D-glutamate] | 1.68 fold increase and 1.68 ± 0.03 fold increase |  |  |
| CONC(=O)CC[C@@H](NC(=O)[C@@H](NC(=O)CNC(=O)/C=C/c1ccc(O)c(OC)c1)C(C)C)C(=O)OC(C)(C)C [Compound 60, tert-Butyl N^2-((E)-3-(4-Hydroxy-3-methoxyphenyl)acryloyl)glycyl-L-valyl-N^5-methoxy-D-glutaminate] | 1.32 ± 0.02 fold increase |  |  |
| CCOC(=O)CC[C@@H](NC(=O)[C@@H](NC(=O)CNC(=O)CCc1ccc(O)c(OC)c1)C(C)C)C(=O)OCC [Compound 18, Diethyl (3-(4-Hydroxy-3-methoxyphenyl)propanoyl)glycyl-L-valyl-D-glutamate] | 1.97 ± 0.05 fold increase | 6160 ± 842 nM | EC50 (HEK-Blue NOD2 cells): 6160 nM; Decrease of NOD2 agonistic activity/potency by a factor, relative to 1: 70 |
| CCOC(=O)CC[C@@H](NC(=O)[C@@H](NC(=O)CNC(=O)/C=C/c1ccc(C(C)C)cc1)C(C)C)C(=O)OCC [Compound 25, Diethyl ((E)-3-(4-Isopropylphenyl)acryloyl)glycyl-L-valyl-D-glutamate] | 2.83 ± 0.06 fold increase | 71 ± 4 nM |  |
| COc1cc(/C=C/C(=O)NCC(=O)N[C@H](C(=O)N[C@H](CCC(=O)OC(C)(C)C)C(=O)N2CCCC2)C(C)C)ccc1O [Compound 64, tert-Butyl (R)-4-((S)-2-(2-((E)-3-(4-Hydroxy-3-methoxyphenyl)acrylamido)acetamido)-3-methylbutanamido)-5-oxo-5-(pyrrolidin-1-yl)pentanoate] | 1.33 ± 0.03 fold increase |  |  |
| CCOC(=O)CC[C@@H](NC(=O)[C@@H](NC(=O)CNC(=O)[C@@H]1C[C@H]1c1ccc(F)c(F)c1)C(C)C)C(=O)OCC [Compound 29b] | 2.71 ± 0.05 fold increase | 39 ± 1 nM |  |
| CCOC(=O)CC[C@@H](NC(=O)[C@@H](NC(=O)CNC(=O)C1CC1c1ccc(OC)c(OC)c1)C(C)C)C(=O)OCC (stereo partly drawn) [Compound 27, Diethyl (2-(3,4-Dimethoxyphenyl)cyclopropane-1-carbonyl)glycyl-L-valyl-D-glutamate] | 2.63 ± 0.15 fold increase | 322 ± 7 nM | Improved potency over 20 (ratio of EC50 versus compound 20): 2.4 fold |
| CCOC(=O)[C@@H](CCC(=O)N[C@@H](CCCCN)C(=O)OC)NC(=O)[C@@H](NC(=O)CNC(=O)/C=C/c1ccc(O)c(OC)c1)C(C)C [Compound 41, Methyl ((R)-5-Ethoxy-4-((S)-2-(2-((E)-3-(4-hydroxy-3-methoxyphenyl)acrylamido)acetamido)-3-methylbutanamido)-5-oxopentanoyl)-L-lysinate] | 1.86 ± 0.02 fold increase | 10200 ± 2620 nM | EC50 (HEK-Blue NOD2 cells): 10200 nM |
| COc1cc(/C=C/C(=O)NCC(=O)N[C@H](C(=O)N[C@H](CCC(=O)N(C)OC)C(=O)OC(C)(C)C)C(C)C)ccc1O [Compound 61, tert-Butyl N^2-((E)-3-(4-Hydroxy-3-methoxyphenyl)acryloyl)glycyl-L-valyl-N^5-methoxy-N^5-methyl-D-glutaminate] | 1.33 ± 0.03 fold increase |  |  |
| CCOC(=O)CC[C@@H](NC(=O)[C@@H](NC(=O)CNC(=O)/C=C/c1ccc([N+](=O)[O-])cc1)C(C)C)C(=O)OCC [Compound 26, Diethyl ((E)-3-(4-Nitrophenyl)acryloyl)glycyl-L-valyl-D-glutamate] | 3.02 ± 0.07 fold increase | 49 ± 4 nM |  |
| CCOC(=O)CC[C@@H](NC(=O)[C@@H](NC(=O)CNC(=O)/C=C/c1ccc(O)c(OC)c1)[C@@H](C)O)C(=O)OCC [Compound 32, Diethyl ((E)-3-(4-Hydroxy-3-methoxyphenyl)acryloyl)glycyl-L-threonyl-D-glutamate] | 1.54 ± 0.02 fold increase | 12500 ± 1220 nM |  |
| CCCCCCCCCCCCCCCCCC(=O)Oc1ccc(/C=C/C(=O)NCC(=O)N[C@H](C(=O)N[C@H](CCC(=O)OC2CCCC2)C(=O)OC2CCCC2)C(C)C)cc1OC [Compound 78, Dicyclopentyl ((E)-3-(3-Methoxy-4-(stearoyloxy)phenyl)acryloyl)glycyl-L-valyl-D-glutamate] | 1.66 ± 0.11 fold increase | 6160 ± 1160 nM | EC50 (HEK-Blue NOD2 cells): 6160 nM |
